{"source": "patent US4713200A", "about": "“Pesticidal compounds” (Burroughs Wellcome Co., priority 1984, dated 1987)", "assay_type_in_all_cases": "in vivo", "key": {"[1]": {"test_system": "Sitophilus granarius", "experiment": "Activity against grain beetles (deposits on grain)", "conditions": "6 days", "protocol": "Mortality was assessed after 6 days."}, "[2]": {"test_system": "male Blattella germanica", "experiment": "Activity against cockroaches (deposit on glass)", "protocol": "Knockdown was assessed after 10 and 60 minutes and mortality after 1 day and 6 days."}, "[3]": {"test_system": "female Musca domestica (WRL strain)", "experiment": "Lethal activity against house flies (topical application, with and without piperonyl butoxide)", "conditions": "mortality after 48 hrs; for LD50 (synergised): with synergist 6 μg piperonyl butoxide per insect", "protocol": "The test compound was applied with the application of the synergist (6 μg piperonyl butoxide (PB) per insect). Mortality was assessed after 48 hrs."}, "[4]": {"test_system": "Mixed sex Musca domestica", "experiment": "Knockdown activity against houseflies (Kearns and March chamber spray)", "conditions": "for KD10 min % effect: 10 min", "protocol": "Mixed sex Musca domestica were held in a Kearns and March chamber and sprayed with 0.2 ml of a solution of the compound in OPD/dichloromethane. Knockdown was assessed at 1 min. intervals for 10 mins."}, "[5]": {"test_system": "third instar larvae of Aedes aegypti", "experiment": "Activity against mosquito larvae (aqueous suspension)", "conditions": "2.5 ppm cpd (+ 12.5 pb)"}, "[6]": {"test_system": "female Culex quinquefasciatus", "experiment": "Knockdown activity against mosquitoes (wind tunnel spray)", "conditions": "for KD10 min % effect: 10 min; for Kill: 24 hrs", "protocol": "The knockdown activity of compounds was assessed as follows: Caged female Culex quinquefasciatus were sprayed in a wind tunnedl with 0.2 ml of a solution of the compound in odourless petroleum distillate (OPD)/dichloromethane (80/20) and knockdown was assessed at minute intervals for 10 mins. The insects were transferred to a holding cup and kept for 24 hrs with sugar/water. Mortalities were assessed at 24 hrs."}, "[7]": {"test_system": "Mustard Beetle (Phaedon cochleariae) second-instar larvae", "experiment": "Activity against mustard beetle larvae (topical application)", "protocol": "Second-instar larvae were used in all the tests and compounds were applied topically to the dorsal surface of the abdomen, using a microapplicator. Between 10 and 33 larvae were used at each concentration of the chemicals. Analar acetone and Analar butanone were used as solvents. In the first tests a 0.5 μl droplet was applied to each larva but after this the droplet size was increased to 1 μl as the larvae were unaffected by the solvents.\nAfter treatment, all the larvae (usually 20) tested at a particular concentration were confined together on turnip leaves. The leaves were placed on damp filter paper in a petri dish and covered with a second layer of filter paper in the lid of the dish.\nThe petri dishes were maintained in an incubator at 20° C. and 16 h light. The turnip leaves were replaced as they were eaten by the larvae.\nThe larvae were assessed at intervals, from 1 h to 216 h after treatment. The following categories were used to classify the larvae:\ni. Healthy larvae which were feeding and moved around the dish"}, "[8]": {"test_system": "fully engorged female Boophilus microplus, susceptible strain", "experiment": "Activity against the cattle tick, injection", "conditions": "10 μg/tick, 14 days", "protocol": "The compound was supplied as a […] solution in DMSO:Acetone (1:1). Administration of the compound was by means of a microapplicator which was preset to deliver 0.2 μl of solution. The compound in solution was injected into fully engorged female Boophilus microplus, susceptible strain, at a site just lateral to the mouthparts at the rate of 10 μg/tick. Reducing the concentration reduced the dose delivered.\nAfter injection the ticks were maintained at 24° C. and 85% RH for 14 days. At this time the ticks were examined for the presence of viable eggs which gave the percent inhibition of reproduction (% IR)."}, "[9]": {"conditions": "0.1 % cpd (piperonyl butoxide entry printed \"^\")"}, "[10]": {"conditions": "0.03 % cpd (0.15 piperonyl butoxide)"}, "[11]": {"conditions": "0.3 % cpd (1.5 piperonyl butoxide)"}, "[12]": {"conditions": "500 μg/ml, 1 hour after treatment"}, "[13]": {"conditions": "500 μg/ml, 20 hours after treatment"}, "[14]": {"conditions": "1000 μg/ml, 1 hour after treatment"}, "[15]": {"conditions": "1000 μg/ml, 20 hours after treatment"}, "[16]": {"conditions": "0.1 % cpd (0.5 piperonyl butoxide)"}}, "data": [{"smiles": "CC(C)CNC(=O)/C=C/C=C/CCCCOCc1cccc(C(F)(F)F)c1", "note": "[Example 2, N-isobutyl 9-(3'trifluoromethylbenzyloxy)-(2E,4E)-nonadienamide]", "values": [{"measurement": "% mortality", "setting": "[1]; 20 ppm cpd (+ 100 pb)", "value": 84, "unit": "%"}, {"measurement": "% mortality 1 day", "setting": "[2]; 1400 mg/m^2 (+ 1400 pb)", "value": 50, "unit": "%"}, {"measurement": "% mortality 6 day", "setting": "[2]; 1400 mg/m^2 (+ 1400 pb)", "value": 50, "unit": "%"}, {"measurement": "LD50 (synergised)", "setting": "[3]", "value": 0.2, "unit": "μg/fly"}, {"measurement": "kT50", "setting": "[4]; [9]", "value": 6.1, "unit": "min"}, {"measurement": "KD10 min % effect", "setting": "[4]; [9]", "value": 86, "unit": "%"}, {"measurement": "% mortality", "setting": "[5]", "value": 100, "unit": "%"}, {"measurement": "kT50", "setting": "[6]; [10]", "value": 8.6, "unit": "min"}, {"measurement": "KD10 min % effect", "setting": "[6]; [10]", "value": 56, "unit": "%"}, {"measurement": "Kill", "setting": "[6]; [10]", "value": 4, "unit": "%"}, {"measurement": "kT50", "setting": "[6]; [11]", "value": 1.2, "unit": "min"}, {"measurement": "KD10 min % effect", "setting": "[6]; [11]", "value": 100, "unit": "%"}, {"measurement": "Kill", "setting": "[6]; [11]", "value": 71, "unit": "%"}, {"measurement": "Dead (number of larvae)", "setting": "[7]; [12]", "value": 0}, {"measurement": "Healthy (number of larvae)", "setting": "[7]; [12]", "value": 0}, {"measurement": "Paralysed (number of larvae)", "setting": "[7]; [12]", "value": 33}, {"measurement": "Dead (number of larvae)", "setting": "[7]; [13]", "value": 24}, {"measurement": "Healthy (number of larvae)", "setting": "[7]; [13]", "value": 9}, {"measurement": "Paralysed (number of larvae)", "setting": "[7]; [13]", "value": 0}, {"measurement": "Dead (number of larvae)", "setting": "[7]; [14]", "value": 0}, {"measurement": "Healthy (number of larvae)", "setting": "[7]; [14]", "value": 0}, {"measurement": "Paralysed (number of larvae)", "setting": "[7]; [14]", "value": 33}, {"measurement": "Dead (number of larvae)", "setting": "[7]; [15]", "value": 29}, {"measurement": "Healthy (number of larvae)", "setting": "[7]; [15]", "value": 4}, {"measurement": "Paralysed (number of larvae)", "setting": "[7]; [15]", "value": 0}]}, {"smiles": "CC(C)CNC(=O)/C=C/C=C/CCCCCCOCc1cc(C(F)(F)F)cc(C(F)(F)F)c1", "note": "[Example 4, N-isobutyl 11-(3',5'-bis-trifluoromethylbenzyloxy)-(2E,4E)-undecadienamide]", "values": [{"measurement": "% mortality", "setting": "[1]; 50 ppm cpd (+ 500 pb)", "value": 100, "unit": "%"}, {"measurement": "% mortality 1 day", "setting": "[2]; 700 mg/m^2 (+ 700 pb)", "value": 32, "unit": "%"}, {"measurement": "% mortality 6 day", "setting": "[2]; 700 mg/m^2 (+ 700 pb)", "value": 32, "unit": "%"}, {"measurement": "LD50 (synergised)", "setting": "[3]", "value": 0.025, "unit": "μg/fly"}, {"measurement": "LD50 (unsynergised)", "setting": "[3]; without synergist", "value": 0.12, "unit": "μg/fly"}]}, {"smiles": "CC(C)CNC(=O)/C=C/C=C/CCCCCOCc1ccccc1", "note": "[Example 8, N-iso-butyl 10-(benzyloxy)-(2E,4E)-decadienamide]", "values": [{"measurement": "LD50 (synergised)", "setting": "[3]", "value": "> 5", "unit": "μg/fly"}]}, {"smiles": "CC(C)CNC(=O)/C=C/C=C/CCCCOCCOc1cc(Cl)cc(Cl)c1", "note": "[Example 66, N--isobutyl 9-(2-(3',5'-dichlorophenoxy)-ethoxy)-nona-2E, 4E-dienamide]", "values": [{"measurement": "kT50", "setting": "[4]; [16]", "value": 5.1, "unit": "min"}, {"measurement": "KD10 min % effect", "setting": "[4]; [16]", "value": 96, "unit": "%"}, {"measurement": "kT50", "setting": "[6]; [16]", "value": 1.2, "unit": "min"}, {"measurement": "KD10 min % effect", "setting": "[6]; [16]", "value": 96, "unit": "%"}, {"measurement": "Kill", "setting": "[6]; [16]", "value": 40, "unit": "%"}]}, {"smiles": "CC(C)C(C)NC(=O)/C=C/C=C/CCCCOCc1ccc(OC(F)(F)F)cc1", "note": "(stereo not shown) [Example 85]", "values": [{"measurement": "% IR (percent inhibition of reproduction)", "setting": "[8]", "value": 100, "unit": "%"}, {"measurement": "mortality at 10 µg/tick", "setting": "[8]; Rhipicephalus microplus, 336 h, read-out: % kill", "value": 50, "unit": "%"}]}, {"smiles": "CC(C)ONC(=O)/C=C/C=C/CCCCOCc1cccc(C(F)(F)F)c1", "note": "[Example 89]", "values": [{"measurement": "LD50 (synergised)", "setting": "[3]", "value": "> 5", "unit": "μg/fly"}]}, {"smiles": "CC(NC(=O)/C=C/C=C/CCCCCCOCc1cc(C(F)(F)F)cc(C(F)(F)F)c1)C(C)(C)C", "note": "(stereo not shown) [Example 108]", "values": [{"measurement": "LD50 (synergised)", "setting": "[3]", "value": 0.09, "unit": "μg/fly"}]}, {"smiles": "CC1(C)CC1NC(=O)/C=C/C=C/CCCCCCOCc1cc(C(F)(F)F)cc(C(F)(F)F)c1", "note": "(stereo not shown) [Example 109]", "values": [{"measurement": "LD50 (synergised)", "setting": "[3]", "value": 0.09, "unit": "μg/fly"}]}, {"smiles": "CC(C)CNC(=O)/C=C/C=C/CCCCC(=O)Cc1cccc(C(F)(F)F)c1", "note": "[Example 122, N--Isobutyl 11-(3-trifluoromethylphenyl)-10-oxo-undeca-2E,-dienamide]", "values": [{"measurement": "LD50 (synergised)", "setting": "[3]", "value": "> 1.5", "unit": "μg/fly"}]}, {"smiles": "CCC(CCC/C=C/C=C/C(=O)NCC(C)C)N(C)Cc1ccccc1", "note": "(stereo not shown) [Example 126, N--Isobutyl N'--methyl-N'--benzyl-9-aminoundeca-2E, 4E-dienamide]", "values": [{"measurement": "LD50 (synergised)", "setting": "[3]", "value": "> 20", "unit": "μg/fly"}]}]}
